According to the NIST ThermoML archive (doi:10.1016/j.jct.2006.01.009):
Numbers after ± are expanded uncertainties.

What was measured:
[1] = xn = mol fraction of the nth substance listed; settings: 308.15 K, 101 kPa, Liquid; for speed of sound: Linear variable-path acoustic interferometer
[2] = 308.15 K, 101 kPa, Liquid; for speed of sound: Linear variable-path acoustic interferometer

SMILES: CC(=O)c1ccc(Cl)cc1 [4'-chloroacetophenone] + CC#N
- speed of sound ([1]; x1 = 0.092): 1256 ± 7.7 m/s
- speed of sound ([1]; x1 = 0.1488): 1266 ± 7.7 m/s
- speed of sound ([1]; x1 = 0.2128): 1278 ± 7.8 m/s
- speed of sound ([1]; x1 = 0.2863): 1292 ± 7.9 m/s
- speed of sound ([1]; x1 = 0.3792): 1310 ± 8 m/s
- speed of sound ([1]; x1 = 0.4876): 1330 ± 8.1 m/s
- speed of sound ([1]; x1 = 0.6196): 1350 ± 8.3 m/s
- speed of sound ([1]; x1 = 0.7847): 1372 ± 8.4 m/s
- speed of sound ([1]; x1 = 1): 1390 ± 8.5 m/s
- mass density ([1]; x1 = 0.092): 857.2 ± 7.2 kg/m3
- mass density ([1]; x1 = 0.1488): 900.3 ± 7.7 kg/m3
- mass density ([1]; x1 = 0.2128): 941.5 ± 8.1 kg/m3
- mass density ([1]; x1 = 0.2863): 982.6 ± 8.5 kg/m3
- mass density ([1]; x1 = 0.3792): 1025.8 ± 9 kg/m3
- mass density ([1]; x1 = 0.4876): 1077.5 ± 9.5 kg/m3
- mass density ([1]; x1 = 0.6196): 1106.9 ± 9.8 kg/m3
- mass density ([1]; x1 = 0.7847): 1145 ± 10 kg/m3
- mass density ([1]; x1 = 1): 1181.3 ± 11 kg/m3

SMILES: CCC(=O)c1ccccc1 [ethyl phenyl ketone] + CC#N
- speed of sound ([1]; x1 = 0.0418): 1250 ± 7.6 m/s
- speed of sound ([1]; x1 = 0.0922): 1264 ± 7.7 m/s
- speed of sound ([1]; x1 = 0.1459): 1279 ± 7.8 m/s
- speed of sound ([1]; x1 = 0.2084): 1296 ± 7.9 m/s
- speed of sound ([1]; x1 = 0.2864): 1314 ± 8 m/s
- speed of sound ([1]; x1 = 0.3757): 1335 ± 8.2 m/s
- speed of sound ([1]; x1 = 0.4796): 1357 ± 8.3 m/s
- speed of sound ([1]; x1 = 0.6093): 1381 ± 8.4 m/s
- speed of sound ([1]; x1 = 0.7791): 1406 ± 8.6 m/s
- speed of sound ([1]; x1 = 1): 1432 ± 8.8 m/s
- mass density ([1]; x1 = 0.0418): 793.4 ± 1.8 kg/m3
- mass density ([1]; x1 = 0.0922): 817.8 ± 1.9 kg/m3
- mass density ([1]; x1 = 0.1459): 841.2 ± 1.9 kg/m3
- mass density ([1]; x1 = 0.2084): 864.9 ± 2 kg/m3
- mass density ([1]; x1 = 0.2864): 889.8 ± 2.1 kg/m3
- mass density ([1]; x1 = 0.3757): 913.6 ± 2.2 kg/m3
- mass density ([1]; x1 = 0.4796): 936 ± 2.2 kg/m3
- mass density ([1]; x1 = 0.6093): 957.5 ± 2.3 kg/m3
- mass density ([1]; x1 = 0.7791): 978.6 ± 2.4 kg/m3
- mass density ([1]; x1 = 1): 1000.6 ± 2.5 kg/m3

SMILES: CC#N [acetonitrile] + CC(=O)c1ccccc1
- speed of sound ([1]; x2 = 0): 1239 ± 7.6 m/s
- mass density ([1]; x2 = 0): 770.6 ± 1.7 kg/m3

SMILES: CCC(=O)c1ccccc1 [ethyl phenyl ketone]
- mass density [2]: 1000.6 ± 2.5 kg/m3
- speed of sound [2]: 1432 ± 8.8 m/s

SMILES: CC(=O)c1ccc(C)cc1 [4'-methylacetophenone] + CC#N
- speed of sound ([1]; x1 = 0.0872): 1272 ± 7.8 m/s
- speed of sound ([1]; x1 = 0.1449): 1288 ± 7.9 m/s
- speed of sound ([1]; x1 = 0.2088): 1305 ± 8 m/s
- speed of sound ([1]; x1 = 0.2823): 1323 ± 8.1 m/s
- speed of sound ([1]; x1 = 0.3756): 1344 ± 8.2 m/s
- speed of sound ([1]; x1 = 0.4771): 1365 ± 8.3 m/s
- speed of sound ([1]; x1 = 0.6125): 1389 ± 8.5 m/s
- speed of sound ([1]; x1 = 0.7811): 1413 ± 8.6 m/s
- speed of sound ([1]; x1 = 1): 1438 ± 8.8 m/s
- mass density ([1]; x1 = 0.0872): 816 ± 1.9 kg/m3
- mass density ([1]; x1 = 0.1449): 841.6 ± 1.9 kg/m3
- mass density ([1]; x1 = 0.2088): 865.3 ± 2 kg/m3
- mass density ([1]; x1 = 0.2823): 888.1 ± 2.1 kg/m3
- mass density ([1]; x1 = 0.3756): 912.4 ± 2.1 kg/m3
- mass density ([1]; x1 = 0.4771): 934 ± 2.2 kg/m3
- mass density ([1]; x1 = 0.6125): 955.6 ± 2.3 kg/m3
- mass density ([1]; x1 = 0.7811): 976.1 ± 2.4 kg/m3
- mass density ([1]; x1 = 1): 996.3 ± 2.5 kg/m3

SMILES: CC(=O)c1ccc(C)cc1 [4'-methylacetophenone]
- mass density [2]: 996.3 ± 2.5 kg/m3
- speed of sound [2]: 1438 ± 8.8 m/s

SMILES: CC(=O)c1ccccc1 [acetophenone] + CC#N
- speed of sound ([1]; x1 = 0.048): 1254 ± 7.7 m/s
- speed of sound ([1]; x1 = 0.1023): 1268 ± 7.7 m/s
- speed of sound ([1]; x1 = 0.1626): 1284 ± 7.8 m/s
- speed of sound ([1]; x1 = 0.2321): 1303 ± 8 m/s
- speed of sound ([1]; x1 = 0.3113): 1327 ± 8.1 m/s
- speed of sound ([1]; x1 = 0.4024): 1351 ± 8.3 m/s
- speed of sound ([1]; x1 = 0.5125): 1374 ± 8.4 m/s
- speed of sound ([1]; x1 = 0.6426): 1395 ± 8.5 m/s
- speed of sound ([1]; x1 = 0.8018): 1417 ± 8.7 m/s
- speed of sound ([1]; x1 = 1): 1445 ± 8.8 m/s
- mass density ([1]; x1 = 0.048): 796.8 ± 1.8 kg/m3
- mass density ([1]; x1 = 0.1023): 823.3 ± 1.9 kg/m3
- mass density ([1]; x1 = 0.1626): 849.3 ± 2 kg/m3
- mass density ([1]; x1 = 0.2321): 874.7 ± 2 kg/m3
- mass density ([1]; x1 = 0.3113): 900 ± 2.1 kg/m3
- mass density ([1]; x1 = 0.4024): 924.7 ± 2.2 kg/m3
- mass density ([1]; x1 = 0.5125): 949.3 ± 2.3 kg/m3
- mass density ([1]; x1 = 0.6426): 972.2 ± 2.3 kg/m3
- mass density ([1]; x1 = 0.8018): 995.6 ± 2.4 kg/m3
- mass density ([1]; x1 = 1): 1020 ± 2.5 kg/m3

SMILES: CC(=O)c1ccc(Cl)cc1 [4'-chloroacetophenone]
- mass density [2]: 1181.3 ± 11 kg/m3
- speed of sound [2]: 1390 ± 8.5 m/s

SMILES: CC#N [acetonitrile] + CC(=O)c1ccc(C)cc1
- speed of sound ([1]; x2 = 0): 1239 ± 7.6 m/s
- mass density ([1]; x2 = 0): 770.6 ± 1.7 kg/m3

SMILES: CC#N [acetonitrile] + CCC(=O)c1ccccc1
- speed of sound ([1]; x2 = 0): 1239 ± 7.6 m/s
- mass density ([1]; x2 = 0): 770.6 ± 1.7 kg/m3

SMILES: CC#N [acetonitrile]
- mass density [2]: 770.6 ± 1.7 kg/m3
- speed of sound [2]: 1239 ± 7.6 m/s

SMILES: CC(=O)c1ccccc1 [acetophenone]
- mass density [2]: 1020 ± 2.5 kg/m3
- speed of sound [2]: 1445 ± 8.8 m/s

SMILES: CC#N [acetonitrile] + CC(=O)c1ccc(Cl)cc1
- speed of sound ([1]; x2 = 0): 1239 ± 7.6 m/s
- mass density ([1]; x2 = 0): 770.6 ± 6.4 kg/m3
